Measurements: US8202865B2, “Oxadiazole derivatives” (Merck Serono SA, priority 2007, dated 2012)
Where a name gives a salt, the structure may show the parent alone.

Each compound was assayed against T1, S1P1 (Homo sapiens, UniProt P21453) (assay: 35S-GTPγS binding, S1P1 membranes). Conditions: membranes from CHO cells expressing S1P1; 60 min 30° C.
T1 construct: expressed in transfected cells; host or cells: CHO cells (membranes)
Format: biochemical
Protocol: Receptor binding assay: Membranes were prepared from CHO cells expressing S1P1 or S1P3 for use in ligand and […] binding studies. Cells were suspended in 50 mM TRIS, pH 7.4, 2 mM EDTA, 250 mM Sucrose (buffer A) and 1× Complete protease inhibitor cocktail (Roche), and disrupted at 4° C. by N2 decompression using a cell disruption bomb (Parr Instrument). Following centrifugation at 1000 RPM for 10 min at 4° C., the supernatant was suspended in buffer A and centrifuged again at 19000 RPM for 60 min at 4° C. The pellet was then suspended in 10 mM HEPES, pH 7.4, 1 mM EDTA, 250 mM Sucrose (Buffer B), and 1× Complete EDTA-free protease inhibitor cocktail and homogenized using a potter. Membranes were flash frozen in liquid N2 and stored at −80° C. [33P]sphingosine 1-phosphate (3000 Ci/mmol; American Radiolabeled Chemicals, Inc.) was added to test compounds in DMSO. Membranes and WGA SPA beads (GE Healthcare) were added to give a final volume of 100 μl in 96-well plates with assay concentrations of 25 pM or 10 pM [33P]sphingosine 1-phosphate (respectively for S1P1 or S1P3), 50 mM HEPES, pH 7.5, 5 mM MgCl2, 100 mM NaCl, 0.4% fatty acid-free BSA, 1-5 μg/well of proteins and 100 μg/well of WGA SPA beads. Binding was performed for 60 min at RT on a shaker and bound radioactivity was measured on a PerkinElmer 1450 MicroBeta counter. Specific binding was calculated by subtracting remaining radioactivity in the presence of 1000-fold excess of unlabeled S1P. Binding data were analyzed using the GraphPad Prism program.
Measurements of ^35S-GTPγS Binding: Membranes (1 to 10 μg protein) prepared as described above, were incubated in 96-well Scintiplates (PerkinElmer) with test compounds diluted in DMSO, in 180 μl of 20 mM HEPES, pH 7.4, 10 mM MgCl2, 2 μg/well Saponin, 0.2% fatty acid free BSA (Assay buffer), 140 mM NaCl and 1.7 μM GDP. The assay was initiated with the addition of 20 μl of 1.5 nM [35S]-GTPγS (1100 Ci/mmol; GE Healthcare) in assay buffer. After 60 min incubation at 30° C. on a shaker, plates were centrifuged for 10 min at 2000 RPM. Supernatant was discarded and membrane bound radioactivity was measured on a PerkinElmer 1450 MicroBeta counter. Triplicate samples were averaged and expressed as % response relative to S1P activation in absence of compound (n=2).

T1 sequence (P21453 whole entry, species assumed): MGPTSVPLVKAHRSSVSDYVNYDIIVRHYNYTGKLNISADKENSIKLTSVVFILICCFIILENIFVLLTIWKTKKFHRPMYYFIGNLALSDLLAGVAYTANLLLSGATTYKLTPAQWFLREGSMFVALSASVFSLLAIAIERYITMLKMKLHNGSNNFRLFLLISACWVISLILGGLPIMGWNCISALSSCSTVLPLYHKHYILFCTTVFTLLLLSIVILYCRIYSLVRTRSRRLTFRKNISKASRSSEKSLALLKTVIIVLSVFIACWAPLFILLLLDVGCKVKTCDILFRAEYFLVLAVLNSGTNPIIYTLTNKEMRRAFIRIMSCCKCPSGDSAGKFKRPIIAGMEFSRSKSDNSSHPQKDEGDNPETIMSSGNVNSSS

SMILES | EC50 [nM]
C#CCOc1ncc(-c2nc(-c3ccc(OCC(=O)O)c(F)c3)no2)cc1Cl [Example 51, (4-{5-[5-chloro-6-(prop-2-yn-1-yloxy)pyridin-3-yl]-1,2,4-oxadiazol-3-yl}-2-fluorophenoxy)acetic acid] | 2020
COCc1cc(-c2nc(-c3cccc(OCCCC(=O)O)c3)no2)ccc1N1CCCCC1C (stereo not drawn) [Example 164, 4-(3-{5-[3-(methoxymethyl)-4-(2-methylpiperidin-1-yl)phenyl]-1,2,4-oxadiazol-3-yl}phenoxy)butanoic acid] | 1.5
Cc1cc(-c2nc(-c3ccc(C(=O)O)c(F)c3)no2)ccc1-c1ccccc1-c1ccccc1 [Example 31, 2-fluoro-4-[5-(2-methyl-1,1′:2′,1″-terphenyl-4-yl)-1,2,4-oxadiazol-3-yl]benzoic acid] | 2400
COCc1cc(-c2nc(-c3ccc(C(=O)OC)c(F)c3)no2)ccc1OC(C)C [Example 110, methyl 2-fluoro-4-{5-[4-isopropoxy-3-(methoxymethyl)phenyl]-1,2,4-oxadiazol-3-yl}benzoate] | 240
O=C(O)COc1ccc(-c2noc(-c3cnc(OCC4CC4)c(Cl)c3)n2)cc1F [Example 52, (4-{5-[5-chloro-6-(cyclopropylmethoxy)pyridin-3-yl]-1,2,4-oxadiazol-3-yl}-2-fluorophenoxy)acetic acid] | 1540
COc1ccc(OC)c(-c2ccc(-c3nc(-c4ccc(C(=O)O)c(F)c4)no3)cc2C)c1 [Example 24, 4-[3-(2′,5′-dimethoxy-2-methylbiphenyl-4-yl)-1,2,4-oxadiazol-3-yl]-2-fluorobenzoic acid] | 10400
CC(=O)Nc1cc(-c2nc(-c3ccc(C(=O)O)c(F)c3)no2)ccc1N1CCCCC1C (stereo not drawn) [Example 65, 4-{5-[3-(acetylamino)-4-(2-methylpiperidin-1-yl)phenyl]-1,2,4-oxadiazol-3-yl}-2-fluorobenzoic acid] | 10400
Cc1ccccc1-c1ccc(-c2nc(-c3ccc(C(=O)O)c(F)c3)no2)cc1OCC(C)C [Example 104, 2-fluoro-4-[5-(2-isobutoxy-2′-methylbiphenyl-4-yl)-1,2,4-oxadiazol-3-yl]benzoic acid] | 800
Cc1cc(-c2nc(-c3ccc(C(=O)O)c(F)c3)no2)ccc1-c1ccccc1C(F)(F)F [Example 8, 2-fluoro-4-{5-[2-methyl-2′-(trifluoromethyl)biphenyl-4-yl]-1,2,4-oxadiazol-3-yl}benzoic acid] | 850
Cc1cc(-c2nc(-c3ccc(O)c(C(=O)O)c3)no2)ccc1-c1cscc1C [Example 44, 2-hydroxy-5-{5-[3-methyl-4-(4-methyl-3-thienyl)phenyl]-1,2,4-oxadiazol-3-yl}benzoic acid] | 1450
CCC(=O)Nc1cc(-c2nc(-c3ccc(C(=O)O)c(F)c3)no2)ccc1N1CCCCC1C (stereo not drawn) [Example 72, 2-fluoro-4-{5-[4-(2-methylpiperidin-1-yl)-3-(propionylamino)phenyl]-1,2,4-oxadiazol-3-yl}benzoic acid] | 8510
Cc1cc(-c2nc(-c3ccc(C(=O)O)c(F)c3)no2)ccc1N1CCCCC1 [Example 16, 2-fluoro-4-[5-(3-methyl-4-piperidin-1-ylphenyl)-1,2,4-oxadiazol-3-yl]benzoic acid] | 2060

Continued, values first:

EC50 [nM] | SMILES
26 | CCc1nnn(CCNC(=O)c2ccc(-c3noc(-c4ccc(-c5ccccc5C)c(COC)c4)n3)cc2F)n1 [Example 180, N-[2-(5-ethyl-2H-tetrazol-2-yl)ethyl]-2-fluoro-4-{5-[2-(methoxymethyl)-2′-methylbiphenyl-4-yl]-1,2,4-oxadiazol-3-yl}benzamide]
0.4 | COCc1cc(-c2nc(-c3cccc(CNCCC(=O)O)c3)no2)ccc1-c1ccccc1C [Example 155, N-(3-{5-[2-(methoxymethyl)-2′-methylbiphenyl-4-yl]-1,2,4-oxadiazol-3-yl}benzyl)-beta-alanine, Hydrochloride salt]
21.6 | COCc1cc(-c2nc(-c3cccc(C(=O)NC4(C(=O)O)CC4)c3)no2)ccc1-c1ccccc1C [Example 133, 1-[(3-{5-[2-(methoxymethyl)-2′-methylbiphenyl-4-yl]-1,2,4-oxadiazol-3-yl}benzoyl)amino]cyclopropanecarboxylic acid]
7700 | Cc1ccccc1-c1ccc(-c2nc(-c3ccc(C(=O)O)c(F)c3)no2)cc1O [Example 99, 2-fluoro-4-[5-(2-hydroxy-2′-methylbiphenyl-4-yl)-1,2,4-oxadiazol-3-yl]benzoic acid]
5140 | Cc1ccccc1-c1ccc(-c2nc(-c3ccc(C(=O)O)c(F)c3)no2)cc1 [Example 5, 2-fluoro-4-[5-(2′-methylbiphenyl-4-yl)-1,2,4-oxadiazol-3-yl]benzoic acid]
58 | COCc1cc(-c2nc(-c3ccc(C(=O)NC4(C(=O)O)CC4)c(F)c3)no2)ccc1-c1ccccc1C [Example 120, 1-[(2-fluoro-4-{5-[2-(methoxymethyl)-2′-methylbiphenyl-4-yl]-1,2,4-oxadiazol-3-yl}benzoyl)amino]cyclopropanecarboxylic acid]
2.5 | CCc1ccccc1-c1ccc(-c2nc(-c3ccc(F)c(CN(C)CCC(=O)O)c3)no2)cc1COC [Example 156, N-(5-{5-[2′-ethyl-2-(methoxymethyl)biphenyl-4-yl]-1,2,4-oxadiazol-3-yl}-2-fluorobenzyl)-N-methyl-beta-alanine, Hydrochloride salt]
233 | Cc1ccccc1-c1ccc(-c2nc(-c3ccc(C(=O)O)c(F)c3)no2)cc1OC(C)C [Example 101, 2-fluoro-4-[5-(2-isopropoxy-2′-methylbiphenyl-4-yl)-1,2,4-oxadiazol-3-yl]benzoic acid]
2270 | COc1cc(-c2noc(-c3ccc(-c4ccccc4C)c(C)c3)n2)ccc1C(=O)O [Example 46, 4-[5-(2,2′-dimethylbiphenyl-4-yl)-1,2,4-oxadiazol-3-yl]-2-methoxybenzoic acid]
410 | COCc1cc(-c2nc(-c3ccc(C(=O)O)c(F)c3)no2)ccc1-c1cc(F)ccc1F [Example 91, 4-{5-[2′,5′-difluoro-2-(methoxymethyl)biphenyl-4-yl]-1,2,4-oxadiazol-3-yl}-2-fluorobenzoic acid]
460 | COCc1cc(-c2nc(-c3ccc(C(=O)O)c(F)c3)no2)ccc1-c1cc(F)ccc1OC [Example 89, 2-fluoro-4-{5-[5′-fluoro-2′-methoxy-2-(methoxymethyl)biphenyl-4-yl]-1,2,4-oxadiazol-3-yl}benzoic acid]
7.8 | COCc1cc(-c2nc(-c3cccc(C(=O)NCCC(=O)O)c3)no2)ccc1-c1ccccc1C [Example 135, N-(3-{5-[2-(methoxymethyl)-2′-methylbiphenyl-4-yl]-1,2,4-oxadiazol-3-yl}benzoyl)-beta-alanine]
86 | COCc1cc(-c2nc(-c3ccc(C(=O)N(C)CC(=O)O)c(F)c3)no2)ccc1-c1ccccc1C [Example 125, N-(2-fluoro-4-{5-[2-(methoxymethyl)-2′-methylbiphenyl-4-yl]-1,2,4-oxadiazol-3-yl}benzoyl)-N-methylglycine]
9.6 | COCc1cc(-c2nc(-c3cccc(C(=O)NCCCC(=O)O)c3)no2)ccc1-c1ccccc1C [Example 139, 4-[(3-{5-[2-(methoxymethyl)-2′-methylbiphenyl-4-yl]-1,2,4-oxadiazol-3-yl}benzoyl)amino]butanoic acid]
240 | COCc1cc(-c2nc(-c3ccc(C(=O)N(C)CC(=O)OC)c(F)c3)no2)ccc1-c1ccccc1C [Example 116, methyl N-(2-fluoro-4-{5-[2-(methoxymethyl)-2′-methylbiphenyl-4-yl]-1,2,4-oxadiazol-3-yl}benzoyl)-N-methylglycinate]
11 | COCc1cc(-c2nc(-c3cccc(C(N)=O)c3)no2)ccc1-c1ccccc1C [Example 182, 3-{5-[2-(methoxymethyl)-2′-methylbiphenyl-4-yl]-1,2,4-oxadiazol-3-yl}benzamide]
4480 | COc1cc(C(=O)O)ccc1-c1noc(-c2ccc(-c3ccccc3C)c(C)c2)n1 [Example 45, 4-[5-(2,2′-dimethylbiphenyl-4-yl)-1,2,4-oxadiazol-3-yl]-3-methoxybenzoic acid]
246 | COCc1cc(-c2nc(-c3cc(Cl)c(C(=O)O)cc3OC)no2)ccc1-c1ccccc1C [Example 115, 2-chloro-5-methoxy-4-{5-[2-(methoxymethyl)-2′-methylbiphenyl-4-yl]-1,2,4-oxadiazol-3-yl}benzoic acid]
